Read-outs that look alike come from different tables or passages of the source.
Assays:
[1] = tested on: tissue; settings: in vivo, cited from earlier work
[2] = listed as 5; cited from earlier work
[3] = biological target: T1, guinea-pig papillary muscle sodium channels (Cavia porcellus, UniProt H0V4Z8); experiment: Action on guinea-pig papillary muscle sodium channels (Vmax, recovery from block); type: cell-based; settings: for recovery to 90% of drug-blocked channels: -90 mV; for potency on cardiac sodium channels: equimolar concentrations; for recovery from block: especially at hyperpolarized levels (-100--120 mV)
T1 construct: Vmax of action potential as measure of sodium current
Description: Depression of cardiac conduction appears to be one of the primary mechanisms underlying local anesthetic cardiotoxicity. Depression of conduction by local anesthetics in both nerve and cardiac tissue results from a block of sodium channels. Furthermore, the degree of sodium channel block by local anesthetics is dependent upon the state of the sodium channel. […] Consequently, a block of sodium channels develops during the upstroke and plateau of the action potential and dissipates during the diastolic interval between beats. Since the effect of a local anesthetic is both state and time dependent, changes in both heart rate and diastolic membrane potential may alter drug action substantially.
(§1) Guinea pig papillary tests were carried out according to the recommendation of the "Report of the Subcommittee on Cardiotoxicity of Local Anesthetics" (Leroy D. Vandam, M.D., chairman). Guinea pig papillary muscle excised from the right ventricle were mounted in a single sucrose gap apparatus (Arlock & Katzune, 1985). Solutions maintained at 37° C.±0.5° continuously perfused the gap compartments. The rear chamber contained isotonic potassium chloride solution. The drugs were added to a Tris-Tyrode solution passing the tip of the muscle. The Tris-Tyrode solution contained (mM): NaCl, 145; KCl, 4; CaCl2, 1.2; MgCl2, 1.05; glucose, 5.5 Tris maleate, 5. It was adjusted to pH 7.4 with trismaleate and HCl before use and gassed with 100% oxygen. Isotonic sucrose solution isolated the rear from the tip to enable current- and voltage-clamping.
The muscles were depolarized with long current pulses (1500 msec). These current steps can induce automaticity or DIA (depolarization induced automaticity). The steps were adjusted so the preparations were depolarized to from -50 to -30 mV since that is in that range that calcium current conductance is initiated.
The results represent the mean from representative experiments. In the absence of drug, Vmax (maximum upstroke velocity of the action potential) recovers from inactivation with an exponential time constant of less that 30 msec at -90 mV (Gettes and Reuter, 1974). […] The time constant of this recovery process is different for channels blocked by different drugs.

[4] = background statement; cited from earlier work
[5] = tested on: conscious rats; experiment: Heart-toxicity in conscious rats (ECG); type: in vivo, Male Sprague Dawley rats; settings: for potency to induce atrioventricular conduction disturbances: rat, in vivo
Description: Male Sprague Dawley rats weighing 290-360 grams were prepared with intravenous catheters under local anesthesia using prilocaine (Citanest*) one hour before experiments. Rapid intravenous bolus injections over 5.0 seconds were given to groups of 8 rats, with a single injection to each animal. […] The ECG was recorded on a Mingograf 34. Convulsions were recorded manually with an electronic marker on one channel of the Mingograf. Only "primary" arrhythmias occurring during the first 60 seconds have been analyzed to avoid confusion with late arrhythmias occurring secondary to respiratory arrest or cardiovascular collapse.

[6] = tested on: guinea pig papillary muscle; settings: Block and Covino, 1981, Courtney, 1984, Kotelko et al.; cited from earlier work
[7] = tested on: ulnar volar nerves; experiment: Finger blockade, digital nerve blocks in man; type: in vivo; settings: Concentration 0.25%
Description: ^2 Digital nerve blocks in man. The test solutions were injected to
block the ulnar volar nerves on the 2nd and 4th fingers of the same
volunteers who had participated in the intracutaneous wheal tests
described above. The tests were carried out in a double blind fashion in
rotating system, so that each solution was used with equal frequency on
each of the blocked fingers. A total of for injections 1.0 ml per
injection, was done in each subject. One week later the procedure was
repeated in the same subjects using the remaining test solutions. This
method has been described by Dhuner et al. (1972) (for citation see Table
2 footnote 1). To measure the efficacy and duration of the blocks, the
individual fingers were pricked rapidly 10 times with a needle algesimete
and the number of painful pricks noted. Each finger was tested every five
minutes until complete recovery. The time of complete anesthesia has been
called "duration of anesthesia".
*i.e. the time from injection to complete analgesia?
**i.e. the number of successful anesthesias of total number of
anesthesias performed (no anesthesia is possible if the ulnar volar nerve
are not contacted by the anesthetic).

[8] = tested on: skin; experiment: Skin temperature measurements within intracutaneous wheals; type: in vivo, man; settings: Conc. 0.25%, HCl-salt, 10 minutes after injection
Description: The mean value of 6 wheals for each substance forms the basis for the values. The control values, however, represent the mean value obtained from 4 different sites measured outside the wheals 90 degrees apart and 2 centimeters from the wheal's center.
In the temperature measurements, an Oriel temperature apparatus* has been used. This is battery driven and is connected to a detector (diameter, 2.5 mm) and has an accuracy of ±0.1° C. The temperature of the skin is measured by pressing the detector against the skin with a pressure of 100 grams. It is retained against the skin until a constant temperature is obtained.
In Table 4, T1 is the measurement obtained at the center of the wheal, and T2 is the average of four measurements taken 90 degrees apart outside of the wheal and within 2 centimeters of the wheal's center.

[9] = in vivo; settings: mouse, iv, 50% mortality of mice, racemate
[10] = tested on: pigs; experiment: Intracoronary administration in anesthetized pigs; type: in vivo, pig
Description: Eight pigs weighing around 50 kg were anesthetized with a continuous infusion of pentobarbital at 600 mg/h. Ventilation was established via a tracheotomy with 30% oxygen in nitrogen and normoventilation by a Siemens-Elema Servoventilator 900B. The following catheters were inserted after cutdown: Left ventricular, aortic, pulmonary arterial, great cardiac venous, left anterior descending coronary, arterial and central venous. […] The corresponding doses for bupivaciane were 0.25, 0.5, 1, 2 and 4 mg and for LEA 0.33, 0.66, 1.33, 2.66 and 5.33 mg. The injection rate was adjusted according to the preinjection coronary blood flow. Each series of drug injections was preceded by a placebo infusion. Total hemodynamic and electrocardiographic recovery was allowed between doses and there was a one hour resting period between drugs.
Central pressures, left ventricular dP/dT and a complete chest lead ECG were recorded continuously. Cardiac output and great cardiac venous blood flow were determined before and directly after each dose of the local anesthetic agent.

[11] = tested on: tissue; experiment: Tissue toxicity limits (Trypan blue test, threshold of tissue irritancy); type: in vivo; settings: Trypan blue test; approximate threshold values of tissue irritancy; racemate
Description: The toxicity of the homologous series of N-alkylpipecolic acid-2,6-xylidides increases step wise and quickly with the lengthening of the alkyl chain. This is manifest from Table 1 set forth below, which compares racemic mixtures of alkyl homologues having from 1 to 5 carbon atoms.
*Trypan blue test; Hoppe et al. (1950), 39, 147-151 "Use of Trypan Blue
and Rabbit Eye Tests For Irritation", J. Amer. Pharm. Assoc. (Scient.
Ed.), the values are approximate threshold values of tissue irritancy.

[12] = tested on: peripheral nerve endings of the epidermis; experiment: Intracutaneous wheals, infiltration anesthesia on forearms of man; type: in vivo; settings: Conc. 0.25%; 12 healthy volunteers, pinprick
Description: By use of intracutaneous wheals it is possible to measure the analgesic effect of an anesthetic on the peripheral nerve endings of the epidermis.
This technique gives information about:
(1) The duration of anesthesia.
^1 Infiltration anesthesia on forearms of man. The test solutions wer
injected intracutaneously on the dorsum of the forearms of 12 healthy
volunteers, 20-25 years old. Three wheals were made on each arm in a
rotating system in a doublebind fashion. The local anesthetic effect was
tested using a pinprick technique. The "duration of anesthesia" was
defined as the time during which none out of six pinpricks into the wheal
was felt. The method has been described by Dhuner et al. (1972). […]

[13] = Force of contraction of guinea pig papillary muscle; type: cell-based; settings: guinea pig, papillary muscle
Description: (§2) In order to initiate an investigation without the necessity to involve voltage-clamp of the calcium current, the preparations were subject to long depolarizing induced automaticity. If the cells are depolarized from about -50 to about -30 mV the automaticity is dependent on a transmembrane calcium current.
as §1, with “Guinea pig papillary muscle excised from the right ventricle were mounted in a single sucrose gap apparatus (Arlock & Katzune, 1985).” left out, “The Tris-Tyrode solution contained (mM): NaCl, 145; KCl, 4; CaCl2, 1.2; MgCl2, 1.05; glucose, 5.5 Tris maleate, 5.” left out
(§3) The force of contraction was measured with a strain gauge transducer before and after the addition of the test compounds to the medium. The percent reduction in maximum force of contraction from the control was calculated.

[14] = tested on: guinea pig papillary muscle; experiment: as above; type: cell-based
Description: as §2
as §1, with “Guinea pig papillary muscle excised from the right ventricle were mounted in a single sucrose gap apparatus (Arlock & Katzune, 1985).” left out, “The Tris-Tyrode solution contained (mM): NaCl, 145; KCl, 4; CaCl2, 1.2; MgCl2, 1.05; glucose, 5.5 Tris maleate, 5.” left out
as §3

CCCCCN1CCCCC1C(=O)Nc1c(C)cccc1C (stereo not drawn) [5 R, N--n-pentylpipecolic acid-2,6-xylidide]
tissue irritation [1]: irritating
tissue irritation ([1]; listed as 5): too irritating against tissue
solubility in water [2]: slightly soluble

CCN(CC)CC(=O)Nc1c(C)cccc1C [Lidocaine, 2-diethylamino-2',6'-acetoxylidide]
block of channels; fast component not measurable ([3]; 10 uM): virtually all channels were blocked
recovery to 90% of drug-blocked channels [3]: 308 ms
potency on cardiac sodium channels [3]: lowest potency
recovery from block [3]: considerably faster
local anesthetic effect duration for epidural use [4]: too short for epidural use
Atrioventricular block, rats responding/total ([5]; 14 umol/kg i.v. bolus): 0/8
Ventricular arrhythmias, rats responding/total ([5]; 14 umol/kg i.v. bolus): 0/8
Atrioventricular block, rats responding/total ([5]; 20 umol/kg i.v. bolus): 0/8
Ventricular arrhythmias, rats responding/total ([5]; 20 umol/kg i.v. bolus): 0/8
Atrioventricular block, rats responding/total ([5]; 28 umol/kg i.v. bolus): 3/8
Ventricular arrhythmias, rats responding/total ([5]; 28 umol/kg i.v. bolus): 0/8
Atrioventricular block, rats responding/total ([5]; 40 umol/kg i.v. bolus): 4/8
Ventricular arrhythmias, rats responding/total ([5]; 40 umol/kg i.v. bolus): 2/8
Atrioventricular block, rats responding/total ([5]; 56 umol/kg i.v. bolus): 8/8
Ventricular arrhythmias, rats responding/total ([5]; 56 umol/kg i.v. bolus): 1/8
potency to induce atrioventricular conduction disturbances [5]: least potent

CCCCN1CCCCC1C(=O)Nc1c(C)cccc1C (racemic) [4 R, N--n-butylpipecolic acid-2,6-xylidide]
negative inotropic effect [6]: potent negative inotropic effect
affinity for the activated and inactivated channels [3]: very high affinity
recovery to 90% of drug-blocked channels [3]: 3561 ms
potency on cardiac sodium channels [3]: highest
recovery from block [3]: very slow
Analgesia-duration, finger blockade [7]: 388 ± 50 min
Frequency (successful anesthesias of total performed) [7]: 15/20
Time of onset, finger blockade ([7]; time from injection to complete analgesia): 9 ± 2 min
Temperature Difference (T1 wheal vs T2 controls) [8]: -0.6 °C
T1 Intracutaneous Wheal temperature ([8]; mean of 6 wheals): 31.5 °C
LD50 [9]: 7.8 mg/kg
death in ventricular fibrillation ([10]; 4 mg intracoronary, eight pigs): Two animals died in ventricular fibrillation
ventricular fibrillation (VF), time after injection ([10]; 4 mg intracoronary, listed as bupivacaine): ≤ 33 s
sudden cardiac collapse ([10]; intracoronary): occurred
Tissue toxicity limits in % [11]: 0.75%
Analgesia-duration, intracutaneous wheals [12]: 118 ± 15 min
potency to induce atrioventricular conduction disturbances [5]: most potent
inhibition at 5 µM [13]: 45.1%
inhibition at 10 µM [13]: 41.7%
effect on force of contraction/contractility [14]: pronounced depressant action

Source: patent US4695576A, “L-N-n-propylpipecolic acid-2,6-xylidide” (priority 1985, dated 1987)
